{
  "source": "paper PMC11698612",
  "about": "“Roles of NET Peptides With Known Antimicrobial Activity and Toxicity in Immune Response” (Journal of Immunology Research, 2024)",
  "key": {"[1]": {"tested_on": "TIB-71 RAW 264.7 macrophages", "assay": "MTT cytotoxicity assay", "assay_type": "cell-based, Mus musculus", "details": "for cytotoxicity (MTT), broad screening / cytotoxicity (MTT) / concentration from which NET1 and NET2 displayed similar cytotoxicity: LPS-free; for cytotoxicity (MTT), broad screening: peptide 0.125-64 µg/mL; for cytotoxicity (MTT), broad screening / cytotoxicity (MTT): triplicates; for cytotoxicity (MTT): peptide concentrations up to 4 μg/mL; for concentration from which NET1 and NET2 displayed similar cytotoxicity: screening 64 to 0.125 µg/mL; for increase of toxicity compared to that in the absence of LPS: with LPS (1, 10, 100 ng/mL) versus without LPS", "protocol": "The TIB-71 RAW 264.7 macrophage line, which was obtained from Mus musculus, was used in this study, and this cell line was supplied by ATCC (Manassas, VA, USA). The MTT Cell Proliferation Kit (Sigma–Aldrich, St. Louis, MO, USA), a colorimetric method, was used to evaluate the damage caused by the peptides in eukaryotic cells. TIB-71 RAW 264.7 macrophages were revived under appropriate culture conditions (37°C, 5% CO2) to prepare for the experiment. The final concentration of peptides ranged 0.125–64 μg/mL. Samples were examined in triplicates for each concentration. Cells incubated without peptide treatment under the same conditions were used as the control. Magainin 2 (Mag2), a known natural AMP with no cytotoxic effects, was used as a positive control. The results were obtained using a 96-well plate reader at 550 and 690 nm."}, "[2]": {"tested_on": "IFN-γ secretion from TIB-71 macrophages", "assay": "IFN-γ secretion by ELISA", "assay_type": "cell-based, mouse", "protocol": "Within the scope of the ELISA study, the effect of varying concentrations of the peptides we synthesized on the mouse macrophage cell line was examined. In this study, a cell line that was not treated with AMPs and LPS, a cell line treated only with AMPs, a cell line treated only with LPS, and a cell line treated with both LPS and AMPs were used. To find the changing TNF-α ratio after incubation, the kit named Mouse Tumor Necrosis Factor α ELISA Kit-RAB0477 (Sigma-Aldrich) was applied according to the protocol. Graphpad Prism (9.0.0) was utilized for performing a one-way ANOVA test (α = 0.05) for the statistical analysis. Similarly, ELISA was applied to measure the change in IFN-γ levels in response to the peptides and LPS. In this experiment, the Mouse IFN-γ ELISA Kit-E-EL-[…] was applied according to the specified kit protocol, and the results were evaluated."}, "[3]": {"tested_on": "TNF-α secretion from TIB-71 macrophages", "assay": "TNF-α secretion by ELISA", "assay_type": "cell-based, mouse", "details": "for TNF-α response: peptide together with LPS (50 ng/mL), NET1 versus peptide only, NET2 at 2 or 4 µg/mL", "protocol": "Within the scope of the ELISA study, the effect of varying concentrations of the peptides we synthesized on the mouse macrophage cell line was examined.\nIn this study, a cell line that was not treated with AMPs and LPS, a cell line treated only with AMPs, a cell line treated only with LPS, and a cell line treated with both LPS and AMPs were used. To find the changing TNF-α ratio after incubation, the kit named Mouse Tumor Necrosis Factor α ELISA Kit-RAB0477 (Sigma–Aldrich) was applied according to the protocol. Graphpad Prism (9.0.0) was utilized for performing a one-way ANOVA test (α = 0.05) for the statistical analysis."}, "[4]": {"tested_on": "IL-6 expression in TIB-71 macrophages", "assay": "IL-6 expression by western blotting", "assay_type": "cell-based, mouse", "details": "for IL-6 expression: peptide alone, normalized to β-actin, versus unstimulated cells, repeated twice", "protocol": "Protein was extracted from TIB-71 cells for use in western blotting. For this purpose, the supernatant of the cells grown in the appropriate environment was separated for ELISA, whereas protein was extracted from the cellular pellets. Protein obtained using the Protein Extraction Kit (Abcam, Cambridge, UK) was prepared for western blotting. The concentrations of protein samples were determined using the Pierce BCA protein assay kit (Thermo Fisher Scientific). The results were analyzed by reading them on a 96-well plate reader at 565 nm. IL-6 was separated by 12% (w/v) SDS-PAGE and transferred onto a PVDF membrane using the wet transfer technique to compare the expression levels of the markers. Proteins were measured using horseradish peroxidase (HRP)-based clarity western ECL substrate and read using ChemiDoc devices. The area of the bands obtained in the western blotting results was computed using Image Lab software. Specifically, the volume occupied by the bands on the membrane was determined, and the band volume of IL-6 was normalized to that of β-actin to assess protein expression in a semiquantitative manner. Microsoft Excel was used for the semiquantitative analysis. IL-6 secretion by mouse macrophages in response to AMP exposure was examined by GraphPad Prism 9.0.0 one-way ANOVA test (GraphPad, La Jolla, CA, USA)."}, "[5]": {"details": "peptide 0.5 µg/mL, response to decreasing LPS concentrations (1, 10, 100 ng/mL)"}, "[6]": {"details": "peptide 2 µg/mL, LPS 1, 10, 100 ng/mL"}, "[7]": {"details": "peptide 4 µg/mL, LPS 1, 10, 100 ng/mL"}, "[8]": {"details": "peptide together with LPS (50 ng/mL)"}},
  "note": "Entries after “also recorded” stand apart in the source; their conditions may differ.",
  "data": [
    {"substance": "RLLLRLLRRLLRLLLR-NH2 [NET1, designed LL-37-like 16-amino acid antimicrobial peptide, …-NH2]", "values": [
      {"measurement": "cytotoxicity (MTT), broad screening", "setting": "[1]", "result": "low cytotoxicity"},
      {"measurement": "cytotoxicity (MTT)", "setting": "[1]", "result": "did not cause significant cytotoxicity"},
      {"measurement": "concentration from which NET1 and NET2 displayed similar cytotoxicity", "setting": "[1]", "result": 4000, "unit": "ng/mL"},
      {"measurement": "cytotoxicity in the presence of LPS", "setting": "[1]; [5]", "result": "decreased NET1 cytotoxicity"},
      {"measurement": "cytotoxicity in the presence of LPS", "setting": "[1]; peptide 1 µg/mL, LPS 1, 10, 100 ng/mL", "result": "lower cytotoxicity"},
      {"measurement": "cytotoxicity in the presence of LPS", "setting": "[1]; [6]", "result": "lower cytotoxicity than NET2"},
      {"measurement": "cytotoxicity in the presence of LPS", "setting": "[1]; [7]", "result": "lowest toxicity"},
      {"measurement": "increase of toxicity compared to that in the absence of LPS", "setting": "[1]; peptide 4 µg/mL", "result": "threefold"},
      {"measurement": "IFN-γ secretion", "setting": "[2]; [8]", "result": "decrease IFN-γ expression"},
      {"measurement": "TNF-α response", "setting": "[3]", "result": "did not differ"},
      {"measurement": "IL-6 expression compared with the other groups", "setting": "[4]; NET1 at the lowest concentration of 2 µg/mL", "result": "threefold lower"},
      {"measurement": "IL-6 expression", "setting": "[4]; no LPS", "result": "decreased"}
    ]},
    {"substance": "RLLLRLLRRLLRLLLR-NH2 [NET2, designed LL-37-like 16-amino acid antimicrobial peptide, …-NH2]", "values": [
      {"measurement": "cytotoxicity (MTT), broad screening", "setting": "[1]", "result": "low cytotoxicity; also recorded: lower toxicity than the other peptides"},
      {"measurement": "cytotoxicity (MTT)", "setting": "[1]", "result": "did not cause significant cytotoxicity"},
      {"measurement": "concentration from which NET1 and NET2 displayed similar cytotoxicity", "setting": "[1]", "result": 4000, "unit": "ng/mL"},
      {"measurement": "cytotoxicity in the presence of LPS", "setting": "[1]; [5]", "result": "increased cytotoxicity"},
      {"measurement": "cytotoxicity in the presence of LPS", "setting": "[1]; [6]", "result": "increased with as the LPS concentration decreased"},
      {"measurement": "cytotoxicity in the presence of LPS", "setting": "[1]; [7]", "result": "increased as the LPS concentration decreased"},
      {"measurement": "increase of toxicity compared to that in the absence of LPS", "setting": "[1]; peptide 4 µg/mL", "result": "tenfold"},
      {"measurement": "IFN-γ secretion", "setting": "[2]; peptide alone, LPS-free medium, three concentrations, versus control, one-way ANOVA", "result": "lower IFN-γ expression than NET1; also recorded: significantly increased"},
      {"measurement": "IFN-γ secretion", "setting": "[2]; [8]", "result": "significantly increased"},
      {"measurement": "TNF-α secretion", "setting": "[3]; peptide alone, LPS-free medium", "result": "decreased with decreasing peptide concentrations"},
      {"measurement": "TNF-α response", "setting": "[3]", "result": "increased significantly"},
      {"measurement": "IL-6 expression lower than that in NET1-treated cells", "setting": "[4]; NET2 used alone, no LPS", "result": 50, "unit": "%"},
      {"measurement": "IL-6 expression in cells treated with LPS", "setting": "[4]; peptide 8 µg/mL with LPS", "result": "anti-inflammatory effect"},
      {"measurement": "IL-6 expression in combination with LPS", "setting": "[4]; peptide 2 and 4 µg/mL with LPS, versus the other groups", "result": "significantly increased"},
      {"measurement": "IL-6 expression", "setting": "[4]; no LPS", "result": "reduced IL-6 expression"}
    ]}
  ]
}
